From patent publication US5281604A, “Angiotensin II receptor blocking 2,3,6-substituted quinazolinones” (American Cyanamid Company, priority 1993, dated 1994)
Where “and” joins values, the source holds several entries; their conditions need not be identical. Identical values can stand only once.

Tested on: ANGIOTENSIN II (AII) VASOPRESSOR RESPONSE
Assay: AII Challenge: blockade of the angiotensin II vasopressor response in conscious spontaneously hypertensive rats
Format: in vivo, rat (Male Okamoto-Aoki SHR)
Details: 3 mg/kg i.v.
Description: By administering a compound of this invention to a rat, and then challenging with angiotensin II, a blockage of the vasopressor response is realized.
Conscious Male Okamoto-Aoki SHR, 16-20 weeks old, weighing approximately 330 g are purchased from Charles River Labs (Wilmington, Mass.). Conscious rats are restrained in a supine position with elastic tape. The area at the base of the tail is locally anesthetized by subcutaneous infiltration with 2% procaine. The ventral caudal artery and vein are isolated, and a cannula made of polyethylene (PE) 10-20 tubing (fused together by heat) is passed into the lower abdominal aorta and vena cava, respectively. The cannula is secured, heparinized (1,000 I.U./ml), sealed and the wound is closed. The animals are placed in plastic restraining cages in an upright position. The cannula is attached to a Statham P23Db pressure transducer, and pulsatile blood pressure is recorded to 10-15 minutes with a Gould Brush recorder. (Chan et al., (Drug Development Res., 18:75-94, 1989).
Angiotensin II (human sequence, Sigma Chem. Co., St. Louis, Mo.) of 0.05 and 0.1 ug/kg i.v. is injected into all rats (predosing response). Then a test compound, vehicle or a known angiotensin II antagonist is administered i.v., i.p. or orally to each set of rats. The two doses of angiotensin II are given to each rat again at 30, 60, 90, 120, 180, 240 and 300 minutes post dosing the compound or vehicle. The vasopressor response of angiotensin II is measured for the increase in systolic blood pressure in mmHg. The percentage of antagonism or blockade of the vasopressor response of angiotensin II by a compound is calculated using the vasopressor response (increase in systolic blood pressure) of angiotensin II of each rat predosing the compound as 100%. A compound is considered active if at 30 mg/kg i.v. it antagonized at least 50% of the response.

[1] = AII 0.05 mcg/kg IV, 30 min post dose
[2] = AII 0.05 mcg/kg IV, 60 min post dose
[3] = AII 0.05 mcg/kg IV, 90 min post dose
[4] = AII 0.05 mcg/kg IV, 120 min post dose
[5] = AII 0.05 mcg/kg IV, 180 min post dose
[6] = AII 0.05 mcg/kg IV, 240 min post dose
[7] = AII 0.05 mcg/kg IV, 300 min post dose
[8] = AII 0.1 mcg/kg IV, 30 min post dose
[9] = AII 0.1 mcg/kg IV, 60 min post dose
[10] = AII 0.1 mcg/kg IV, 90 min post dose
[11] = AII 0.1 mcg/kg IV, 120 min post dose
[12] = AII 0.1 mcg/kg IV, 180 min post dose
[13] = AII 0.1 mcg/kg IV, 240 min post dose
[14] = AII 0.1 mcg/kg IV, 300 min post dose

## CCCCc1nc2ccc(C3CC4C(O3)ON3C4CCC3(C)C)cc2c(=O)n1Cc1ccc(-c2ccccc2-c2nnn[nH]2)cc1 (stereo not shown) [Example 14]
[1]
  % Inhibition: 79%
  Average Change: 7.5 mmHg
  Control Before AII (single rat): 225 mmHg and 240 mmHg
  Response After AII (single rat): 225 mmHg and 250 mmHg
  Response Change (single rat): 0 mmHg and 15 mmHg
[2]
  % Inhibition: 64%
  Average Change: 12.5 mmHg
  Control Before AII (single rat): 225 mmHg and 240 mmHg
  Response After AII (single rat): 235 mmHg and 255 mmHg
  Response Change (single rat): 10 mmHg and 15 mmHg
[3]
  % Inhibition: 74%
  Average Change: 9 mmHg
  Control Before AII (single rat): 225 mmHg and 237 mmHg
  Response After AII (single rat): 235 mmHg and 245 mmHg
  Response Change (single rat): 10 mmHg and 8 mmHg
[4]
  % Inhibition: 76%
  Average Change: 8.5 mmHg
  Control Before AII (single rat): 210 mmHg and 230 mmHg
  Response After AII (single rat): 215 mmHg and 242 mmHg
  Response Change (single rat): 5 mmHg and 12 mmHg
[5]
  % Inhibition: 76%
  Average Change: 8.5 mmHg
  Control Before AII (single rat): 215 mmHg and 230 mmHg
  Response After AII (single rat): 225 mmHg and 237 mmHg
  Response Change (single rat): 10 mmHg and 7 mmHg
[6]
  % Inhibition: 71%
  Average Change: 10 mmHg
  Control Before AII (single rat): 205 mmHg and 230 mmHg
  Response After AII (single rat): 215 mmHg and 240 mmHg
  Response Change (single rat): 10 mmHg
[7]
  % Inhibition: 74%
  Average Change: 9 mmHg
  Control Before AII (single rat): 220 mmHg and 235 mmHg
  Response After AII (single rat): 228 mmHg and 245 mmHg
  Response Change (single rat): 8 mmHg and 10 mmHg
[8]
  % Inhibition: 56%
  Average Change: 17.5 mmHg
  Control Before AII (single rat): 230 mmHg and 245 mmHg
  Response After AII (single rat): 240 mmHg and 270 mmHg
  Response Change (single rat): 10 mmHg and 25 mmHg
[9]
  % Inhibition: 56%
  Average Change: 17.5 mmHg
  Control Before AII (single rat): 215 mmHg and 245 mmHg
  Response After AII (single rat): 235 mmHg and 260 mmHg
  Response Change (single rat): 20 mmHg and 15 mmHg
[10]
  % Inhibition: 60%
  Average Change: 16 mmHg
  Control Before AII (single rat): 220 mmHg and 240 mmHg
  Response After AII (single rat): 235 mmHg and 257 mmHg
  Response Change (single rat): 15 mmHg and 17 mmHg
[11]
  % Inhibition: 63%
  Average Change: 15 mmHg
  Control Before AII (single rat): 215 mmHg and 230 mmHg
  Response After AII (single rat): 230 mmHg and 245 mmHg
  Response Change (single rat): 15 mmHg
[12]
  % Inhibition: 69%
  Average Change: 12.5 mmHg
  Control Before AII (single rat): 215 mmHg and 230 mmHg
  Response After AII (single rat): 225 mmHg and 245 mmHg
  Response Change (single rat): 10 mmHg and 15 mmHg
[13]
  % Inhibition: 56%
  Average Change: 17.5 mmHg
  Control Before AII (single rat): 215 mmHg and 225 mmHg
  Response After AII (single rat): 230 mmHg and 245 mmHg
  Response Change (single rat): 15 mmHg and 20 mmHg
[14]
  % Inhibition: 46%
  Average Change: 21.5 mmHg
  Control Before AII (single rat): 215 mmHg and 235 mmHg
  Response After AII (single rat): 233 mmHg and 260 mmHg
  Response Change (single rat): 18 mmHg and 25 mmHg
